In publication PMC10728220, “Novel 3-(pyrazol-4-yl)-2-(1H-indole-3-carbonyl)acrylonitrile derivatives induce intrinsic and extrinsic apoptotic death mediated P53 in HCT116 colon carcinoma” (Scientific Reports, 2023):

Columns and labels:
Bcl2 = test: RT-PCR gene expression, Bcl2, in HCT116; type: cell-based, human; conditions: HCT116, 6.76 µg/mL, 48 h, relative to untreated control
Method: (§1) In this current research, relative gene expression related to apoptosis should be studied well because they were very interesting to understand the effect of our selected compound on this important biological process. HCT116 cells were treated with chalcone 7f (6.76µg/mL) for 48 h, and then subjected to qPCR analysis regarding control samples. The effect of chalcone 7f on the expression level of (Bax, p53, Bcl2, and CDK4) genes was assessed using the qPCR technique. […] As indicated in this schematic diagram, the expression of apoptotic genes (Bax and P53) was enhanced by the effect of chalcone 7f to reach (3.662, and 5.435) respectively, relative to the control.
(§2) Total RNA was extracted from the compound 7f-treated HCT116 cells and the untreated cells using the RNA Purification Kit GeneJET (Thermo scientific, ON, Canada) 0.1 µg of the extracted RNA was reverse transcribed into complementary DNA (cDNA) using High-Capacity cDNA Reverse Transcription Kit (Thermo Scientific, ON, Canada). qPCR was done using Brilliant SYBR Green qPCR master mix (Applied Biosystems, San Francisco, CA, USA) in One Step Plus Real-Time PCR System (Applied Biosystems, San Francisco, CA, USA). […] The relative gene expression was determined using the 2^−ΔΔCt equation after normalization to the expression of β-actin (housekeeping gene) (Qiagen, CA, USA)(10 pmol/µL)[85], [86]. […]

p53 = test: RT-PCR gene expression, p53, in HCT116; type: cell-based, human; conditions: HCT116, 6.76 µg/mL, 48 h, relative to untreated control
Method: as §1, §2

Human caspase-3 = test: ELISA caspase 3 production in HCT116; type: cell-based; conditions: HCT116, 7f at its IC50 value
Method: Apoptosis is known and identified by specific characterizations in which the activation of caspases plays an important role. In apoptotic pathways, mechanisms of (activation/inactivation) of these proteins are not fully understood. The significance of understanding the mechanistic machinery that controls programmed cell death, being initiated by various chemotherapeutic agents is very critical and attracts the attention of researchers in this area. In this assay, cells were incubated in the absence or presence of 7f with varying concentrations (39, 78, 156, 313, 625, 1250, and 2500 ng/ml), inducing a concentration-dependent increase in caspase3 production in HCT116. […] A concentration of 7f was used at its IC50 value and compared directly to the control. […] However, there was only 103.5 pg/ml induced by control cells. It was interesting to note that chalcone 7f stimulated the production of caspase 3 protein in HCT116 cells 4.8-fold compared to control as outlined in Fig. 7.
The quantitative measurements of Human caspases-3, -8, and -9 concentrations in HCT116 cell culture lysates were performed using ELISA assay. […] All readings were measured immediately at a wavelength of 450 nm. From the readings of the standards, a standard curve was plotted using curve fitting software. Then, the concentrations for unknown samples and controls were measured from the standard curve.

SMILES: N#C/C(=C\c1cn(-c2ccccc2)nc1-c1ccc([N+](=O)[O-])cc1)C(=O)c1c[nH]c2ccccc12 [Compound 7f, (E)-2-(1H-Indole-3-carbonyl)-3-(3-(4-nitrophenyl)-1-phenyl-1H-pyrazol-4-yl)acrylonitrile]
- RT-PCR fold change bcl2 (Bcl2): 0.351 fold
- RT-PCR fold change p53 (p53): 5.435 fold
- caspase 3 production, fold compared to control (Human caspase-3): 4.8 fold
- caspase 3 protein production (Human caspase-3; control cells 103.5 pg/ml): 504.1 pg/mL
